This note sets out measurements from US20080146555A1, “Uses of Kinase Inhibitors and Compositions Thereof” (GPC Biotech, Inc, priority 2004, published 2008).

Structures are written as SMILES. Structures can show the parent of a compound that is named as a salt. Where two headings read alike, the source gives them in different places. Bounds are passed on as bounds.

One test concerns HT29/mit. As to the kind of experiment: SRB cytotoxicity, mitoxanthrone resistant cells. The format is cell-based, human. As to the method: (§1) In these experiments, the P-glycoprotein expressing NCI-Adr resistant subline (Vickers et al., 1989. Mol Endocrinology 3 (1):157-164) was used. […] Briefly, cells were plated in 96 well dishes 24 hours prior to compound addition. Where noted, they were exposed to verapamil for 4 hours prior to compound addition and then throughout the treatment period (72 hours). The assay was terminated with the addition of cold TCA to a final concentration of 10% and the plates were incubated for one hour at 4° C. The plates were then washed 5 times with water and 100 μl of a Sulforhodamine B solution (4%) was added to each well. The plate was then incubated for 10 minutes at room temperature before removal of unbound dye by washing with 1% acetic acid. The bound dye was solubilized with 10 mM Trizma base and the absorbance read at OD570.
(§2) The parental non-mutated cell line HT29 was used as a control.
(§3) Z. Cytotoxicity was measured using the SRB assay according to Shekan et al. as described above in Example 1A.

For another test, the system named is HT29. As to the kind of experiment: SRB cytotoxicity, HT29 parental cells. The conditions noted are these: Homo sapiens, HT-29, 72 h. The class given is cell-based. As for the experimental part: as §1, with “acid.” for “acid. The bound dye was solubilized with 10 mM Trizma base and the absorbance read at OD570.”
as §2, §3

The target in the next test is T1, CK1 delta (Homo sapiens, UniProt P48730).
T1 construct: purchased Upstate 14-520
T1 sequence (P48730 whole entry): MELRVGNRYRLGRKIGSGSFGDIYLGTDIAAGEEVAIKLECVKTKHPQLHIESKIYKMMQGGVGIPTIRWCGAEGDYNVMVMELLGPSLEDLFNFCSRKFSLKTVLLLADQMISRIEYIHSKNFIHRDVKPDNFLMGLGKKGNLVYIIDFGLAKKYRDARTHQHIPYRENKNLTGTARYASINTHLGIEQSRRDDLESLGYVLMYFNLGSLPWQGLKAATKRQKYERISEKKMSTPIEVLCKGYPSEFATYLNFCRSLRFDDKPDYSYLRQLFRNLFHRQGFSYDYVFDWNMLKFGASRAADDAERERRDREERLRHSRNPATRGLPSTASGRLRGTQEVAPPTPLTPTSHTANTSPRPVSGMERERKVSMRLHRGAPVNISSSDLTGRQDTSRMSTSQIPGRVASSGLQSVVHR
As to the kind of experiment: CK1-Delta kinase assay (B16 assay). The class given is biochemical.

In the next test the test system is A2780 xenograft. As to the kind of experiment: A2780 xenograft tumor model. Conditions: mouse, in vivo. Set-up: species or system mice. As for the experimental part:
Drugs. Compounds of the invention were synthesized and prepared for i.v. administration in a biocompatible vehicle. CPT-11 (Camptosar®, Pharmacia) was obtained as the pharmaceutical drug and was prepared in 5% dextrose-water (D5W). All preparations were made fresh weekly and injection volumes were adjusted to body weight (0.2 ml/20 g mouse).
Mice/Husbandry. Female nu/nu mice were obtained from Charles River, housed in static microisolators, and provided ad libitum with water and an irradiated standard rodent diet (Purina Pico-Lab Rodent Diet 20).
Standard Protocol. […] Animals were initially monitored twice weekly for tumor growth and then daily as the implants approached the desired size of approximately 100 mm^3. When the tumors grew to between 62-221 mg in calculated tumor weight, the animals were pair-matched into appropriate experimental treatment groups (8-10 animals/group) and treatment with test compounds was initiated. […] Tumor weights were calculated and body weights were taken twice weekly and animals were observed frequently for adverse drug effects. […]
Tumors were measured by determining the length and width of the tumor with a digital caliper. […]
Log cell kill (LCK) is a calculation that determines the percentage of tumor cells that are killed after the initiation of treatment and can be used as a quantitative measure of efficacy: […]

Turning to `COCCN1CCN(Cc2ccc(-c3n[nH]c4c3C(=O)c3c(NC(=O)NN5CCOCC5)cccc3-4)cc2)CC1` [Compound B16, N-[3-(4-{[4-(2-methoxyethyl)piperazinyl]methyl}phenyl)-4-oxoindeno[2,3-d]pyrazol-5-yl](morpholin-4-ylamino)carboxamide dihydrochloride], the “RR (relative resistance) HT29/mit vs HT29” value in the test on HT29/mit amounted to 22.1. In addition, the half-maximal inhibitory concentration (IC50) in the test on HT29/mit (Homo sapiens, HT-29, 72 h, SRB) was 1700 nM; in the test with HT29, 77 nM; on CK1 delta (CK1 delta, read-out: CSNK1A1 (CK1) Inhibition (IC50), B16), less than 50 nM; at CK1 delta (kinase panel, read-out: CK1 IC50 (B16)) it was less than 100 nM.
Regarding `CC(C)N1CCN(C(=O)COc2ccc(-c3n[nH]c4c3C(=O)c3c(NC(=O)NN5CCOCC5)cccc3-4)cc2)CC1` [Compound A37], in the test on A2780 xenograft, the “efficacy in A2780 xenograft tumor model” value is given as “high efficacy”.

The term IC50 denotes the midpoint of a concentration-inhibition curve.
